For this assay, the system named is R. equi. Briefly: R. equi intrabronchial challenge model of pneumonia in foals. Format: in vivo. To be noted: SLO 2 IU subcutaneous twice a day without antibiotics. As for the experimental part:
Animals: 24 foals (average age 4 +/− days old) were used in this challenge model and two additional foals served as uninfected controls. The foals were raised on a Veterinary Science farm and kept with their mares throughout the study. Foals were evaluated shortly after birth for inclusion in the study using the following criteria; normality in physical examination, absence of lung sounds on auscultation, normal temperature, and unremarkable ultrasound examination of the lungs. None of the foals received anti-rhodococcal plasma or other treatments prior to enrollment in the study. The foals were moved with their dams to individual box stalls in a BSL2 isolation facility. Baseline values for heart rate, respiratory rate, temperature, fibrinogen concentration, and leukocyte count were obtained. […]
After the foals were sedated, a flexible fiberoptic endoscope was used to deliver the bacteria suspended in 35 ml of sterile PBS into both main bronchi. […] The foals were returned to their stalls and dams and monitored daily for changes in rectal temperature, respiration, and pulse as determined by physical exam and auscultation of the lungs. […] Clinical signs recorded included lung auscultations, overall attitude, appetite, resting respiratory rate and pulse. […] Daily observation of attitude, appetite, lung auscultation were scored (0-4) and combined to generate an overall daily score for each foal. […]

Results on one substance are retold here after US20140120191A1, “METHOD OF TREATING A DISORDER ASSOCIATED WITH S[…]” (BEECH TREE LABS INC., priority 2011, published 2014).

“Also recorded” adds a separate entry of the source.

For streptolysin O [SLO alone], the “treatment effect / clinical course” value was “deteriorated rapidly and required early euthanasia; also recorded: no treatment effect”.
